From ChEMBL document CHEMBL3430912, “GSK Tres Cantos Anti-Kinetoplastid Screening (TCAKS) Data”

What was measured:
Leishmania donovani [1] = assay: (§1) GSK_TCAKS: pIC50 Leishmania donovani Imaging: THP-1 Host Macrophages. Assay plates (384-well) were prepared by adding 250nL of compound to each well. For single shot assay, the final compound concentration was 5 uM. […] Automated image analysis was performed with a script developed on Acapella High Content Imaging and Analysis Software (PerkinElmer). Output: THP-1 cell count were reported for each well.; format: functional, organism-based, Homo sapiens
Leishmania donovani [2] = assay: as §1, with “Infected” for “THP-1 Host”, “Percent of infected macrophage cells” for “THP-1 cell count”; format: functional, organism-based, Homo sapiens; details: THP-1
Trypanosoma cruzi [3] = assay: (§2) GSK_TCAKS: pIC50 Trypanosoma cruzi Imaging: Infected Cells. […] Cells were then washed once with PBS before infection. T. cruzi trypomastigotes, collected at days 5 to 8 after infection from LLC-MK2 parasite infected cultures, were allowed to swim out for 4h at 37C from a centrifuged pellet (2,500 rpm/10 min/room temperature). Trypomastigotes were then collected and counted in a CASY Cell Counter. Trypomastigotes, in supplemented DMEM, were added to H9c2 cultures in a multiplicity of infection of 1 and incubated for 18 h. Cells were washed once with PBS before incubation of the infected H9c2 monolayer with trypsin (Life-Technologies) to detach cells from the flask. Cells were counted in a CASY Cell Counter using a 150 um capillary and their density set at 5 * 10^4 cells per mL in supplemented assay DMEM. Infected H9c2 were dispensed into 384-well poly-lysine coated assay plates at 50uL per well using a Multidrop Combi dispenser. After seeding them, the plates were incubated at 37C, 5% CO2 for 72h. Cultures were then fixed and stained by addition of 50 uL of a solution containing 8% formaldehyde and 4 uM DRAQ5 DNA dye (BioStatus, UK) per well. […] Five images were collected per well for reliable statistical analysis. Automated image analysis was performed with a script developed on Acapella High Content Imaging and Analysis Software (PerkinElmer). Output: percentage of infected cells per well as a second infection marker.; format: functional, organism-based, Rattus norvegicus; details: H9c2, 4 h
[4] = GSK_TCAKS: pIC50 HepG2 human cell line viability assay using luminiscence. […] Seeding density was checked to ensure that new mono-layers were not more than 50% confluent at the time of harvesting. Cell suspension was added to 500 mL of the same medium at a final density of 1.2 * 10^5 cells/mL. This cell suspension was dispensed (25 uL, 3000 cells per well) into 384-well clear-bottom plates using a Multidrop Combi dispenser. Prior to addition of the cell suspension, the screening compounds (250 nL) were pre-dispensed into the plates with an Echo liquid handler. Plates were incubated for 48 h at 37C, 5% CO2. After incubation, plates equilibrated at room temperature for 30 min before proceeding to develop the luminescent signal. The signal developer, CellTiter-Glo Reagent, was allowed to equilibrate at room temperature for 30 min and added to the plates (25uL per well) using a Multidrop Combi dispenser. Plates were left for 10 min at room temperature for stabilization and then read using a ViewLux.; format: toxicity, cell-based
[5] = tested on: Trypanosoma brucei brucei; assay: GSK_TCAKS: pIC50 Trypanosoma brucei viability assay using fluorescence intensity. Assay plates (1536-well) were prepared by dispensing 25nL of compound solution per well using an Echo acoustic dispenser (Labcyte).; format: functional, organism-based; details: Lister 427, 2 h
[6] = tested on: Trypanosoma brucei brucei; assay: GSK_TCAKS: pIC50 Trypanosoma brucei viability assay using luminiscence. Assay plates (1536-well) were prepared. T. brucei cultures were harvested and counted in a CASY cell counter. A parasite suspension was prepared at a final concentration of 5 * 10^4 cells/mL in complete HMI9 medium and 6uL was dispensed to all wells containing compounds using a Multidrop Combi dispenser. 6uL of HMI9 media with 0.4% DMSO were dispensed to control columns. Plates were incubated for 24 h at 37C, 5% CO2 then tempered for 10 min at room temperature. ATP content was quantified by adding 4 uL of CellTiter-Glo Reagent (Promega) according to the manufacturer's instructions. Luminescence was measured using a ViewLux.; format: functional, organism-based; details: Lister 427, CASY
[7] = target: Sterol 14-alpha demethylase (Trypanosoma cruzi (strain CL Brener), UniProt Q7Z1V1); assay: GSK_TCAKS: pIC50 CYP51 from Trypanosoma cruzi.; format: functional
Leishmania donovani [8] = assay: as §1, with “Amastigotes/Macrophages.” for “THP-1 Host Macrophages.”, “Average number of amastigotes per macrophage” for “THP-1”, “cell” for “cell count”; format: functional, organism-based, Homo sapiens; details: THP-1
Trypanosoma cruzi [9] = assay: as §2, with “H2C9” for “Trypanosoma cruzi”, “H9c2 Host Cardiomyocytes.” for “Infected Cells.”, “Number” for “percentage”, “H9c2 Host Cardiomyocytes nuclei to determine drug-related cytotoxicity.” for “infected cells per well as a second infection marker.”; format: functional, organism-based, Rattus norvegicus; details: H9c2, 4 h
Trypanosoma cruzi [10] = assay: GSK_TCAKS: pIC50 Trypanosoma cruzi viability assay using beta-GAL activity. This assay was run at single shot at 5uM compound concentration per well. The biological reagents consisted of NIH-3T3 host cells and trypomastigotes parasitic cells; both cell types were set to a 3.3 * 10^5 cells/mL dilution in assay DMEM by means of a CASY cell counter device using a 60um capillary. 6 uL of the mixture were dispensed per well (about 1 * 10^3 host-cells and 1 * 10^3 parasites) with a Multidrop Combi dispenser. […] In all wells, the percentage of DMSO never exceeded 0.5%. Plates incubated for four days at 37C, 5% CO2. The substrate used for the assay fluorescence intensity (FLINT) readout was resorufin-beta-D-galactopiranoside (Sigma-Aldrich) at 5uM per well. It was diluted in PBS supplemented with the soft detergent Igepal (Fluka).; format: functional, organism-based, Mus musculus; details: Tulahuen, NIH3T3
Leishmania donovani [11] = assay: GSK_TCAKS: pIC50 Leishmania donovani viability assay using fluorescence intensity. Assay plates (1536-well) were prepared by adding 30nL per well of compound. For single shot assay, the final compound concentration was 5uM. […] Briefly, eGFP LdBOB axenic amastigotes were harvested, fixed and counted in a CASY cell counter (Roche-Applied Science). A final concentration of 1.5 * 10^5 cells per well were prepared in amastigote media containing 500 U/mL penicillin/streptomycin (Invitrogen) and 6uL was dispensed to each experimental well using a Multidrop Combi dispenser (Thermo Scientific). 6uL of assay media was dispensed to control columns used as reference for 100% compound response. Following incubation for 72 h at 37C, 5% CO2, 2 uL of resazurin was added to each well at a final concentration of 0.5 mM in phosphate buffered saline (PBS) with IGEPAL (Sigma-Aldrich), 0.05% (v/v).; format: functional, organism-based
Trypanosoma cruzi [12] = assay: GSK_TCAKS: pIC50 Trypanosoma cruzi Imaging: Amastigotes/Cell. […] Cells were then washed once with PBS before infection. T. cruzi trypomastigotes, collected at days 5 to 8 after infection from LLC-MK2 parasite infected cultures, were allowed to swim out for 4h at 37C from a centrifuged pellet (2,500 rpm/10 min/room temperature). Trypomastigotes were then collected and counted in a CASY Cell Counter. Trypomastigotes, in supplemented DMEM, were added to H9c2 cultures in a multiplicity of infection of 1 and incubated for 18 h. Cells were washed once with PBS before incubation of the infected H9c2 monolayer with trypsin (Life-Technologies) to detach cells from the flask. Cells were counted in a CASY Cell Counter using a 150 um capillary and their density set at 5 * 10^4 cells per mL in supplemented assay DMEM. Infected H9c2 were dispensed into 384-well poly-lysine coated assay plates at 50uL per well using a Multidrop Combi dispenser. After seeding them, the plates were incubated at 37C, 5% CO2 for 72h. Cultures were then fixed and stained by addition of 50 uL of a solution containing 8% formaldehyde and 4 uM DRAQ5 DNA dye (BioStatus, UK) per well. […] Five images were collected per well for reliable statistical analysis. Automated image analysis was performed with a script developed on Acapella High Content Imaging and Analysis Software (PerkinElmer). Output: number of amastigotes per cell as infection level measurement.; format: functional, organism-based, Rattus norvegicus; details: H9c2, 4 h

Sterol 14-alpha demethylase, sequence (Q7Z1V1 whole entry): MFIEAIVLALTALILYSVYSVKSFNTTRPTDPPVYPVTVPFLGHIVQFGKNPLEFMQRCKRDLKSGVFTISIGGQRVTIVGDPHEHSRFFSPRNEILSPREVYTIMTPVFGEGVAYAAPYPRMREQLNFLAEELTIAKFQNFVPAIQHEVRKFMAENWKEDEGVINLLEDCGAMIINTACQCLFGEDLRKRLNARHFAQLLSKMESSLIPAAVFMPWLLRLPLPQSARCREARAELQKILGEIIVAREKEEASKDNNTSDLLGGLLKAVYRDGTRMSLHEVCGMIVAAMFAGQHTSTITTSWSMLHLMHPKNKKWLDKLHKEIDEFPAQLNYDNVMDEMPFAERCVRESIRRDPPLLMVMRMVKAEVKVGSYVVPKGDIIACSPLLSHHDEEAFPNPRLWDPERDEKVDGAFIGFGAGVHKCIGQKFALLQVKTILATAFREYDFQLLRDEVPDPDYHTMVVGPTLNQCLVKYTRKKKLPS

Row | SMILES | IC50 (Leishmania donovani [1]) [µM] | IC50 (Leishmania donovani [2]) [µM] | IC50 (Trypanosoma cruzi [3]) [µM] | IC50 at 48 h [4] [µM] | IC50 [5] [µM] | IC50 [6] [µM] | IC50 [7] [µM] | IC50 (Leishmania donovani [8]) [µM] | IC50 (Trypanosoma cruzi [9]) [µM] | IC50 (Trypanosoma cruzi [10]) [µM] | IC50 (Leishmania donovani [11]) [µM] | IC50 (Trypanosoma cruzi [12]) [µM]
1 | NS(=O)(=O)c1ccc(CNC(=O)c2ccc([N+](=O)[O-])s2)cc1 | 39.8 | 25.1 | 5.01 | 15.8 | 0.251 | 0.251 | 39.8 | 12.6 | 20 | 1 | 31.6 | 0.794
2 | Cc1ccccc1NS(=O)(=O)c1ccc2[nH]cc(C(=O)NC3CCCC3)c(=O)c2c1 | 31.6 | > 50.1 | 31.6 | 25.1 | 0.316 | 0.631 | 12.6 | 39.8 | 20 | 25.1 | > 50.1 | 25.1
3 | C[C@@H](Oc1cc(-n2cnc3ccc(C(O)CO)cc32)sc1C(N)=O)c1ccccc1C(F)(F)F (stereo partly drawn) | 15.8 | 20 | 20 | > 10 | 0.398 | 0.794 | 25.1 | 12.6 | 0.631 | 5.01 | 15.8 | 15.8
4 | COc1cccc(S(=O)(=O)Nc2ccc3c(c2)CC(N2CCC(NC(=O)C4CC4)CC2)C3)c1 (stereo not drawn) | > 50.1 | > 50.1 | > 50.1 | > 100 | 1 | 0.794 | 63.1 | 25.1 | > 50.1 | 39.8 | > 50.1 | 31.6
5 | O=C(NC1CCN(C2Cc3ccc(NS(=O)(=O)c4cc(F)cc(F)c4)cc3C2)CC1)C1CC1 (stereo not drawn) | 12.6 | > 50.1 | > 50.1 | > 100 | 1 | 0.794 | 50.1 | 12.6 | > 50.1 | > 50.1 | 25.1 | > 50.1
6 | COc1cccc(C(=O)[C@H]2C[C@@H]2CN(Cc2ccccn2)Cc2ccccn2)c1 | > 50.1 | 2 | 1.26 | > 100 | 15.8 | 20 | 31.6 | 1.58 | 20 | 1.26 | 7.94 | 0.794
7 | O=C(CC1(O)C(=O)N(Cc2ccccc2)c2ccc(Br)cc21)c1cccnc1 (stereo not drawn) | 39.8 | > 50.1 | 25.1 | 63.1 | 0.631 | 0.794 | 3.98 | 31.6 | 3.16 | 5.01 | > 50.1 | 20
8 | O=C(Nc1ccc(-c2nc3ccccc3c(=O)[nH]2)cc1)c1cccs1 | > 50.1 | > 50.1 | > 50.1 | > 100 | 0.251 | 1 | > 100 | > 50.1 | > 50.1 | 3.16 | > 50.1 | > 50.1
9 | O=C(c1ccc(Cl)cc1)c1ccc(OC(=O)N2CCOCC2)cc1 | > 50.1 | 5.01 | > 50.1 | > 100 | 7.94 | > 39.8 | 39.8 | 2 | > 50.1 | 12.6 | 6.31 | 6.31
